From ChEMBL document CHEMBL1138942, “Inactivation of GABA transaminase by 4-acryloylphenol” (Bioorg Med Chem Lett, 2006)

Columns and labels:
[1] = (§1) Inhibition of GABA-T; set-up: species or system Rattus norvegicus
Rattus norvegicus = organism: Rattus norvegicus; assay: as §1

Ki [1]: 470 µM
Activity (Rattus norvegicus): Time-dependent effect
Compound: C=CC(=O)c1ccc(O)cc1
